Data published in the NIST ThermoML archive (doi:10.1021/acs.jced.5b01053).
Numbers after ± are expanded uncertainties.

Key:
[1] = 298.15 K; 101.33 kPa; Crystal; Vibrating tube method
[2] = Solid-liquid equilibrium temperature; details: 101 kPa; Crystal; DTA
[3] = Molar enthalpy of transition or fusion; details: Crystal; DSC

mass density [1]: 1289 ± 3 kg/m3
Solid-liquid equilibrium temperature [2]: 431.49 ± 1 K
Molar enthalpy of transition or fusion [3]: 6.26 ± 0.229 kcal/mol
Structure (SMILES): CS(=O)(=O)c1ccc(C=O)cc1 [4-(methylsulfonyl)benzaldehyde]
